# Experimental data from paper PMC7700664, “In Vitro and Ex Vivo Evaluation of Penetratin as a Non-invasive Permeation Enhancer in the Penetration of Salmon Calcitonin through TR146 Buccal Cells and Porcine Buccal Tissues” (Pharmaceuticals, 2020).
# Legend:
# TR146 cells = experiment: FITC-Penetratin and Alexa 647-sCT internalization in TR146 cells (flow cytometry); assay type: cell-based, human; conditions: 2 h, FACS
# Experimental: For the internalization of FITC-Penetratin and Alexa 647-sCT, Alexa 647-sCT was synthesized. Alexa-647 and sCT were left at room temperature for 2 h to react, and the reaction was terminated using ammonium chloride. Purification of Alexa 647-sCT was done through dialysis.
# TR146 cells were seeded in a 6-well culture plate and confocal dish at a density of 5.0 × 10^5 cells per well, and incubated for 24 h at 37 °C in 5 % CO2. To determine the concentration at which optimal intracellular uptake of Penetratin occurs, FITC-Penetratin at 2.5, 5, 10, 15, 20, 30, and 40 μM were added and incubated for 2 h.
# To confirm the effect of Penetratin on intracellular uptake of sCT, 1.22, 6.10 and 12.2 μM of FITC-Penetratin were added to 40 μg of Alexa 647-sCT and incubated for 2 h at 37 °C. For the energy-independent internalization of Penetratin, 40 μg of Alexa 647-sCT and 12.2 μM of FITC-Penetratin were added and incubated for 2 h at 4 °C (energy-abolishing condition) and 37 °C (biological condition). After 2 h, imaging study with flow cytometry (BD FACSverse; Becton Dickinson, Heidelberg, Germany) and confocal laser scanning microscopy (LSM 800, Zeiss, Oberkochen, Germany) were performed.
# TR146 cells were treated with a pre-determined amount of FITC-Penetratin and Alexa 647-sCT in a 6-well culture plate. […]
# TR146 cell layer = experiment: In vitro cell permeation study (Transwell); assay type: in vitro ADME, human; design: Kp (permeability coefficient): unit not given here; conditions: 40 μg sCT; for Kp (permeability coefficient) / ER (enhancement ratio): TR146 Transwell; for Kp (permeability coefficient) / Js (flux): apical to basolateral, HBSS-HEPES, 37 °C, mean ± SD n = 3; for Kp (permeability coefficient): ELISA, Kp = Js/Cd; for Js (flux): TR146 layer on 12-well Transwell, 28–30 days culture, sampling 0.5–8 h, sCT ELISA
# Experimental: (§1) TR146 cell was seeded in a 12-well Transwell insert (Corning Inc., Corning, NY, USA) at a density of 5 × 10^4 cells per cm^2, and the medium was changed every 2 days for 28–30 days. The experiment was conducted from apical to basolateral and HBSS-HEPES buffer was used as media. Forty micrograms of sCT and 1.22, 6.10, and 12.2 μM of Penetratin were added to apical chamber and kept at 37 °C. 500 μL of sampling was obtained at 0.5, 1, 2, 4 and 8 h. Transepithelial electrical resistance (TEER) value was measured before and after the experiment. TEER was calculated with the following Equation (1), where Rinsert with cell, Rinsert without cell, and A were insert filter areas. The permeated amount of sCT was analyzed using an sCT ELISA kit (Phoenix Pharmaceuticals, Burlingame, CA, USA):TEER = (Rinsert with cell − Rinsert without cell) × A(1)
# (§2) The flux (Js) was calculated using the following Equation (2), where t (h) was permeation time, A( cm^2 ) was permeation area, and Qr (ng) was the permeated amount of sCT, (2) Js=Qr/A·t(ng·cm^−2·h^−1) Kp was calculated with the following Equation (3), (3) Kp=Js/Cd([…]) where Js was the flux from the steady state (ng⋅cm^−2⋅h^−1) and Cd was the initial concentration in the donor chamber (ng⋅cm^−3). Finally, the enhancement ratio (ER) was obtained by dividing the Kp value of each formulation with that of the control.
# TR146 cell layers = experiment: TEER before and after permeability experiments; assay type: cell-based, human; conditions: for TEER Value After: after permeability experiment (8 h, 37 °C); for TEER Value After / TEER Value Before: TR146 cell layers on Transwell; for TEER Recovery: after vs before permeability experiment, TR146 cell layers; for TEER Value Before: before permeability experiment
# Experimental: as §1
# porcine buccal tissues = experiment: Ex vivo buccal tissues permeation (Franz diffusion cell); assay type: in vitro ADME; conditions: 40 μg sCT; for Kp (permeability coefficient) / Js (flux): porcine buccal epithelium, 37 °C, mean ± SD n = 3; for Kp (permeability coefficient): Franz cell, pH 7.4 PBS, ELISA, Kp = Js/Cd; for Js (flux): Franz diffusion cell, area 2.0 cm^2, receptor 12.5 mL pH 7.4 PBS, 600 rpm, 8 h, sCT ELISA; for ER (enhancement ratio): porcine buccal tissue
# Experimental: Buccal pre-treatment was performed according to the experimental method of Oh et al.. Briefly, porcine buccal tissues were immediately collected after pigs were sacrificed from a local slaughterhouse. Adipose and connective tissues were removed from buccal mucosa using surgical scissors. To obtain buccal epithelium, tissues were put in pH 7.4 PBS at 60 °C for 1 min. They were evaluated in the following in vitro permeation study.
# Buccal permeability of sCT was evaluated using the Franz diffusion cell. The permeation area was 2.0 cm^2, and the volume of receptor media was 12.5 mL. The receptor was filled with pH 7.4 PBS and stirred at 600 rpm at 37 °C. The Franz diffusion cell was equilibrated for 30 min after mounting the buccal epithelium. Forty micrograms of sCT and of 1.22, 6.10 and 12.2 μM of Penetratin, of which molecular ratios were 1:0.1, 1:0.5 and 1:1 in donor part, respectively, were added to the Franz diffusion cell. Half of a milliliter of sample was obtained at different time intervals (1, 2, 4, and 8 h) from the receptor part and analyzed by a sCT ELISA kit (Phoenix Pharmaceuticals, Burlingame, CA, USA).
# as §2
# [1] = no reference given for the value; cited from earlier work
# Experimental: Penetratin is one of the most promising CPPs. Penetratin has positively charged amino acids such as lysine and arginine, and hydrophobic amino acids. Various cargoes were delivered by overcoming the barrier of the cell membrane, but the mechanism of CPPs and Cargo delivery through the cell membrane is still unclear. There is a possible explanation. At pH 7.4, where permeation and cell uptake experiments were conducted, sCT with a pI of 10.4 and penetratin have a positive charge, so there is no ionic interaction between penetratin and sCT. Penetratin and sCT form a hydrophobic interactio ...
# [2] = Penetratin 1.22 μM, Kp of formulation divided by Kp of control
# [3] = Penetratin 6.10 μM, Kp of formulation divided by Kp of control
substance,measurement,setting,value
"FITC-Penetratin: FITC labeled Penetratin, purchased from Peptron",internalization of FITC-Penetratin at 4 °C,"TR146 cells; 12.2 μM FITC-Penetratin + 40 μg Alexa 647-sCT, 4 °C",confirmed
same,relative MFI of FITC-Penetratin (internalization) versus concentration,"TR146 cells; FITC-Penetratin 2.5–40 μM, 37 °C, n = 3","increased steeply from 2.5 to 15 μM, but increased more gradually from 15 to 40 μM"
Salmon calcitonin [sCT],Kp (permeability coefficient),TR146 cell layer; Penetratin 0 μM (control),0.201 ± 0.007
same,Js (flux),TR146 cell layer; Penetratin 0 μM (control),16.091 ± 0.560 ng·cm^−2·h^−1
same,Kp (permeability coefficient),TR146 cell layer; Penetratin 1.22 μM,0.275 ± 0.041
same,ER (enhancement ratio),TR146 cell layer; [2],1.4
same,Js (flux),TR146 cell layer; Penetratin 1.22 μM,22.004 ± 3.247 ng·cm^−2·h^−1
same,Kp (permeability coefficient),TR146 cell layer; Penetratin 6.10 μM,0.676 ± 0.063
same,ER (enhancement ratio),TR146 cell layer; [3],3.4
same,Js (flux),TR146 cell layer; Penetratin 6.10 μM,54.075 ± 5.053 ng·cm^−2·h^−1
same,Kp (permeability coefficient),TR146 cell layer; Penetratin 12.2 μM,1.115 ± 0.140
same,ER (enhancement ratio),"TR146 cell layer; Penetratin 12.2 μM, Kp of formulation divided by Kp of control (text: fold increase of Js/flux)",5.5
same,Js (flux),TR146 cell layer; Penetratin 12.2 μM,89.190 ± 11.227 ng·cm^−2·h^−1
same,TEER Value After,TR146 cell layers; 40 μg sCT + Penetratin 0 μM,60.48 ± 5.88 Ω·cm^2
same,TEER Value After,TR146 cell layers; 40 μg sCT + Penetratin 1.22 μM,59.73 ± 2.94 Ω·cm^2
same,TEER Value After,TR146 cell layers; 40 μg sCT + Penetratin 6.10 μM,60.11 ± 6.00 Ω·cm^2
same,TEER Value After,TR146 cell layers; 40 μg sCT + Penetratin 12.2 μM,61.60 ± 6.62 Ω·cm^2
same,TEER Recovery,TR146 cell layers; 40 μg sCT + Penetratin 0 μM,96.31 ± 1.78%
same,TEER Recovery,TR146 cell layers; 40 μg sCT + Penetratin 1.22 μM,94.21 ± 1.90%
same,TEER Recovery,TR146 cell layers; 40 μg sCT + Penetratin 6.10 μM,98.17 ± 2.64%
same,TEER Recovery,TR146 cell layers; 40 μg sCT + Penetratin 12.2 μM,96.52 ± 4.97%
same,TEER Value Before,TR146 cell layers; group 40 μg sCT + Penetratin 0 μM,62.72 ± 5.20 Ω·cm^2
same,TEER Value Before,TR146 cell layers; group 40 μg sCT + Penetratin 1.22 μM,63.47 ± 3.99 Ω·cm^2
same,TEER Value Before,TR146 cell layers; group 40 μg sCT + Penetratin 6.10 μM,61.23 ± 6.00 Ω·cm^2
same,TEER Value Before,TR146 cell layers; group 40 μg sCT + Penetratin 12.2 μM,63.84 ± 6.42 Ω·cm^2
same,Kp (permeability coefficient),porcine buccal tissues; Penetratin 0 μM (control),0.005 ± 0.000 cm·h^−2 × 10^−3
same,Js (flux),porcine buccal tissues; Penetratin 0 μM (control),0.208 ± 0.018 ng·cm^−2·h^−1
same,Js (flux),porcine buccal tissues; Penetratin 1.22 μM (sCT:Penetratin 1:0.1),1.973 ± 0.660 ng·cm^−2·h^−1
same,Kp (permeability coefficient),porcine buccal tissues; Penetratin 1.22 μM,0.049 ± 0.017 cm·h^−2 × 10^−3
same,ER (enhancement ratio),porcine buccal tissues; [2],9.5
same,Js (flux),porcine buccal tissues; Penetratin 6.10 μM (sCT:Penetratin 1:0.5),6.707 ± 0.832 ng·cm^−2·h^−1
same,Kp (permeability coefficient),porcine buccal tissues; Penetratin 6.10 μM,0.168 ± 0.021 cm·h^−2 × 10^−3
same,ER (enhancement ratio),porcine buccal tissues; [3],32.2
same,Js (flux),porcine buccal tissues; Penetratin 12.2 μM (sCT:Penetratin 1:1),19.507 ± 1.794 ng·cm^−2·h^−1
same,Kp (permeability coefficient),porcine buccal tissues; Penetratin 12.2 μM,0.488 ± 0.045 cm·h^−2 × 10^−3
same,ER (enhancement ratio),"porcine buccal tissues; Penetratin 12.2 μM, Kp of formulation divided by Kp of control (text: fold increase of flux / permeated amount)",93.7
same,pI,[1],10.4
